# Like-named read-outs stand apart in the source and are kept apart here.
# Test: Pharmacokinetic profile of a SOMATULINE/DECAPEPTYL composition in beagle dogs (RIA of blood samples)
# Type: in vivo
# Text: Once a particular peptide or peptide salt is found to gel in an in vitro assay, e.g., an assay as described above, an in vivo assay can be used to determine the suitability of that peptide salt for use as a sustained-release carrier peptide of a therapeutic agent or agents in animals or humans. A blood level release profile for the carrier peptide and/or the therapeutic agent or agents can be determined by injecting the composition into an animal, e.g., a Sprague Dawley rat, a dog, etc., and testing blood samples taken at specific time intervals, e.g., hourly intervals over 1 to 5 days, or 12 or 24 hour intervals over 5 to 45 days, for the concentration of the peptide and/or therapeutic agent or agents. The suitability of a particular peptide gel, or a peptide/carrier gel, for therapeutic delivery of the carrier peptide and/or therapeutic agent or agents can thus be determined.
# Generally, in such an assay animals are anaesthetized with pentobarbital (60 mg/kg i.p. for rats), and a jugular vein is cannulated for blood sampling. A test semisolid suspension or solid composition (or standard solution for comparison purposes), e.g., a SOMATULINE/DECAPEPTYL mixture, is injected subcutaneously at a specific dosage, e.g., 1.0, 3.0, or 6.0 mg/kg of SOMATULINE. After administration of the composition or solution, heparinized blood samples are obtained through the cannula at set time intervals, and plasma is separated after centrifugation. The amount of carrier peptide and/or therapeutic agent(s) in the plasma samples is/are determined by, e.g., a standard radioimmunoassay (RIA) technique that allows a direct measurement of the carrier peptide and/or therapeutic agent(s) without extraction from the rat plasma. The resulting data are plotted (e.g., blood concentration (ng/ml) vs. time) to establish a blood level release profile.
# 0.15 ml of the foregoing semisolid mixture from Example 1 was loaded into a 0.3 ml insulin syringe and was injected into beagle dogs. Blood samples were collected and standard radioimmunoassay (RIA) analysis was performed thereon.
compound,measurement,setting,value
"CC(C)[C@@H]1NC(=O)[C@H](CCCCN)NC(=O)[C@@H](Cc2c[nH]c3ccccc23)NC(=O)[C@H](Cc2ccc(O)cc2)NC(=O)[C@@H](NC(=O)[C@H](N)Cc2ccc3ccccc3c2)CSSC[C@@H](C(=O)N[C@H](C(N)=O)[C@@H](C)O)NC1=O [SOMATULINE, lanreotide]",level at 0 h,"dog, in vivo, TIME 0.00 days, beagle dogs, 0.15 ml Example 1 semisolid mixture injected, read-out: concentration in blood samples (RIA)",0.02 ng/mL
same,level at 0.24 h,"dog, in vivo, TIME 0.01 days, beagle dogs, 0.15 ml Example 1 semisolid mixture injected, read-out: concentration in blood samples (RIA)",3.91 ng/mL
same,level at 0.48 h,"dog, in vivo, TIME 0.02 days, beagle dogs, 0.15 ml Example 1 semisolid mixture injected, read-out: concentration in blood samples (RIA)",7.29 ng/mL
same,level at 0.96 h,"dog, in vivo, TIME 0.04 days, beagle dogs, 0.15 ml Example 1 semisolid mixture injected, read-out: concentration in blood samples (RIA)",9.34 ng/mL
same,level at 1.92 h,"dog, in vivo, TIME 0.08 days, beagle dogs, 0.15 ml Example 1 semisolid mixture injected, read-out: concentration in blood samples (RIA)",12.6 ng/mL
same,level at 4.08 h,"dog, in vivo, TIME 0.17 days, beagle dogs, 0.15 ml Example 1 semisolid mixture injected, read-out: concentration in blood samples (RIA)",17.3 ng/mL
same,level at 6 h,"dog, in vivo, TIME 0.25 days, beagle dogs, 0.15 ml Example 1 semisolid mixture injected, read-out: concentration in blood samples (RIA)",19.5 ng/mL
same,level at 9.12 h,"dog, in vivo, TIME 0.38 days, beagle dogs, 0.15 ml Example 1 semisolid mixture injected, read-out: concentration in blood samples (RIA)",17.8 ng/mL
same,level at 24 h,"dog, in vivo, TIME 1.00 days, beagle dogs, 0.15 ml Example 1 semisolid mixture injected, read-out: concentration in blood samples (RIA)",11.4 ng/mL
same,level at 47.76 h,"dog, in vivo, TIME 1.99 days, beagle dogs, 0.15 ml Example 1 semisolid mixture injected, read-out: concentration in blood samples (RIA)",9.51 ng/mL
same,level at 72.48 h,"dog, in vivo, TIME 3.02 days, beagle dogs, 0.15 ml Example 1 semisolid mixture injected, read-out: concentration in blood samples (RIA)",7.77 ng/mL
same,level at 144.96 h,"dog, in vivo, TIME 6.04 days, beagle dogs, 0.15 ml Example 1 semisolid mixture injected, read-out: concentration in blood samples (RIA)",6.63 ng/mL
same,level at 192.96 h,"dog, in vivo, TIME 8.04 days, beagle dogs, 0.15 ml Example 1 semisolid mixture injected, read-out: concentration in blood samples (RIA)",5.99 ng/mL
same,level at 241.44 h,"dog, in vivo, TIME 10.06 days, beagle dogs, 0.15 ml Example 1 semisolid mixture injected, read-out: concentration in blood samples (RIA)",4.88 ng/mL
same,level at 312.96 h,"dog, in vivo, TIME 13.04 days, beagle dogs, 0.15 ml Example 1 semisolid mixture injected, read-out: concentration in blood samples (RIA)",3.14 ng/mL
same,level at 361.2 h,"dog, in vivo, TIME 15.05 days, beagle dogs, 0.15 ml Example 1 semisolid mixture injected, read-out: concentration in blood samples (RIA)",2.54 ng/mL
same,level at 408.48 h,"dog, in vivo, TIME 17.02 days, beagle dogs, 0.15 ml Example 1 semisolid mixture injected, read-out: concentration in blood samples (RIA)",1.85 ng/mL
same,level at 483.36 h,"dog, in vivo, TIME 20.14 days, beagle dogs, 0.15 ml Example 1 semisolid mixture injected, read-out: concentration in blood samples (RIA)",1.46 ng/mL
same,level at 528.96 h,"dog, in vivo, TIME 22.04 days, beagle dogs, 0.15 ml Example 1 semisolid mixture injected, read-out: concentration in blood samples (RIA)",1.3 ng/mL
same,level at 577.44 h,"dog, in vivo, TIME 24.06 days, beagle dogs, 0.15 ml Example 1 semisolid mixture injected, read-out: concentration in blood samples (RIA)",1.11 ng/mL
same,level at 650.88 h,"dog, in vivo, TIME 27.12 days, beagle dogs, 0.15 ml Example 1 semisolid mixture injected, read-out: concentration in blood samples (RIA)",0.65 ng/mL
same,level at 698.64 h,"dog, in vivo, TIME 29.11 days, beagle dogs, 0.15 ml Example 1 semisolid mixture injected, read-out: concentration in blood samples (RIA)",0.52 ng/mL
same,level at 745.2 h,"dog, in vivo, TIME 31.05 days, beagle dogs, 0.15 ml Example 1 semisolid mixture injected, read-out: concentration in blood samples (RIA)",0.52 ng/mL
same,level at 818.64 h,"dog, in vivo, TIME 34.11 days, beagle dogs, 0.15 ml Example 1 semisolid mixture injected, read-out: concentration in blood samples (RIA)",0.5 ng/mL
same,level at 866.88 h,"dog, in vivo, TIME 36.12 days, beagle dogs, 0.15 ml Example 1 semisolid mixture injected, read-out: concentration in blood samples (RIA)",0.45 ng/mL
same,level at 912.72 h,"dog, in vivo, TIME 38.03 days, beagle dogs, 0.15 ml Example 1 semisolid mixture injected, read-out: concentration in blood samples (RIA)",0.34 ng/mL
same,level at 984.72 h,"dog, in vivo, TIME 41.03 days, beagle dogs, 0.15 ml Example 1 semisolid mixture injected, read-out: concentration in blood samples (RIA)",0.27 ng/mL
same,level at 1082.4 h,"dog, in vivo, TIME 45.10 days, beagle dogs, 0.15 ml Example 1 semisolid mixture injected, read-out: concentration in blood samples (RIA)",0.17 ng/mL
same,level at 1160.64 h,"dog, in vivo, TIME 48.36 days, beagle dogs, 0.15 ml Example 1 semisolid mixture injected, read-out: concentration in blood samples (RIA)",0.14 ng/mL
same,level at 1199.76 h,"dog, in vivo, TIME 49.99 days, beagle dogs, 0.15 ml Example 1 semisolid mixture injected, read-out: concentration in blood samples (RIA)",0.15 ng/mL
same,level at 1248.24 h,"dog, in vivo, TIME 52.01 days, beagle dogs, 0.15 ml Example 1 semisolid mixture injected, read-out: concentration in blood samples (RIA)",0.21 ng/mL
same,level at 1368.96 h,"dog, in vivo, TIME 57.04 days, beagle dogs, 0.15 ml Example 1 semisolid mixture injected, read-out: concentration in blood samples (RIA)",0.14 ng/mL
same,level at 1417.92 h,"dog, in vivo, TIME 59.08 days, beagle dogs, 0.15 ml Example 1 semisolid mixture injected, read-out: concentration in blood samples (RIA)",0.27 ng/mL
same,level at 1536.48 h,"dog, in vivo, TIME 64.02 days, beagle dogs, 0.15 ml Example 1 semisolid mixture injected, read-out: concentration in blood samples (RIA)",0.21 ng/mL
same,level at 1584.48 h,"dog, in vivo, TIME 66.02 days, beagle dogs, 0.15 ml Example 1 semisolid mixture injected, read-out: concentration in blood samples (RIA)",0.2 ng/mL
same,level at 1656.24 h,"dog, in vivo, TIME 69.01 days, beagle dogs, 0.15 ml Example 1 semisolid mixture injected, read-out: concentration in blood samples (RIA)",0.16 ng/mL
same,level at 1707.6 h,"dog, in vivo, TIME 71.15 days, beagle dogs, 0.15 ml Example 1 semisolid mixture injected, read-out: concentration in blood samples (RIA)",0.15 ng/mL
same,duration of sustained release of therapeutic levels in the blood,"gel with SOMATULINE as carrier peptide and DECAPEPTYL as therapeutic agent, see Example 1",one month or longer
CC(C)C[C@H](NC(=O)[C@@H](Cc1c[nH]c2ccccc12)NC(=O)[C@H](Cc1ccc(O)cc1)NC(=O)[C@H](CO)NC(=O)[C@H](Cc1c[nH]c2ccccc12)NC(=O)[C@H](Cc1c[nH]cn1)NC(=O)[C@@H]1CCC(=O)N1)C(=O)N[C@@H](CCCNC(=N)N)C(=O)N1CCC[C@H]1C(=O)NCC(N)=O [DECAPEPTYL],level at 0.24 h,"beagle, dog, in vivo, 0.15 ml",2.66 ng/mL
same,level at 0.48 h,"beagle, dog, in vivo, 0.15 ml",6.04 ng/mL
same,level at 0.96 h,"beagle, dog, in vivo, 0.15 ml",9.97 ng/mL
same,level at 1.92 h,"beagle, dog, in vivo, 0.15 ml",16.4 ng/mL
same,level at 4.08 h,"beagle, dog, in vivo, 0.15 ml",17.3 ng/mL
same,level at 6 h,"beagle, dog, in vivo, 0.15 ml",21.2 ng/mL
same,level at 9.12 h,"beagle, dog, in vivo, 0.15 ml",23.1 ng/mL
same,level at 24 h,"beagle, dog, in vivo, 0.15 ml",8.11 ng/mL
same,level at 47.76 h,"beagle, dog, in vivo, 0.15 ml",3.97 ng/mL
same,level at 72.48 h,"beagle, dog, in vivo, 0.15 ml",3.16 ng/mL
same,level at 144.96 h,"beagle, dog, in vivo, 0.15 ml",1.35 ng/mL
same,level at 192.96 h,"beagle, dog, in vivo, 0.15 ml",0.94 ng/mL
same,level at 241.44 h,"beagle, dog, in vivo, 0.15 ml",0.5 ng/mL
same,level at 312.96 h,"beagle, dog, in vivo, 0.15 ml",0.42 ng/mL
same,level at 361.2 h,"beagle, dog, in vivo, 0.15 ml",0.32 ng/mL
same,level at 408.48 h,"beagle, dog, in vivo, 0.15 ml",0.24 ng/mL
same,level at 483.36 h,"beagle, dog, in vivo, 0.15 ml",0.19 ng/mL
same,level at 528.96 h,"beagle, dog, in vivo, 0.15 ml",0.13 ng/mL
same,level at 577.44 h,"beagle, dog, in vivo, 0.15 ml",0.11 ng/mL
same,level at 650.88 h,"beagle, dog, in vivo, 0.15 ml",0.07 ng/mL
same,duration of sustained release of therapeutic levels in the blood,"dog, in vivo",one month or longer

# Source: US7943575B2, “Sustained release drug formulations containing a carrier peptide” (Ipsen Pharma S.A.S., priority 2002, dated 2011)
